Like-named read-outs stand apart in the source and are kept apart here.
Experiments:
[1] = system: relevant ATCC QC organisms; settings: CLSI established QC range, cited from earlier work
[2] = system: non-speciated Corynebacterium; test: MIC of baseline clinical isolates (Example 8); assay type: cell-based; settings: Corynebacterium non-speciated baseline isolates (N′ = 2), central laboratory, mITT
Procedure, shortened: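 MIC values reflect CLSI susceptibility testing of MBN-101 (BisEDT) on baseline clinical isolates. These were recovered at a central lab from bone, tissue, swab and sinus tract samples of the infected index site.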

[3] = system: vancomycin-intermediate Staphylococcus aureus; test: Broth microdilution MIC (Example 6); assay type: cell-based
Procedure, shortened: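 CLSI broth microdilution in cation-adjusted Mueller Hinton broth, test agents 0.06-64 μg/mL from DMSO stocks, inoculum approx. 5×10^5 CFU/mL. Incubation 35° C for 16–20 hr; MIC taken as lowest concentration inhibiting visible growth.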

[4] = system: E. faecium; test: Broth microdilution MIC (Example 5); assay type: cell-based; settings: VRE vanA
Procedure, shortened: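 MICs were determined by CLSI broth microdilution with serial two-fold drug dilutions in CLSI-prepared media. Inocula were set to 0.5 McFarland, diluted, and added to the plates. Bacteria were incubated at 35° C. for 16-24 hr, and endpoints were read visually per CLSI criteria.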

[5] = system: E. faecalis; test: Broth microdilution MIC (Example 5); assay type: cell-based, Enterococcus faecalis; settings: Enterococcus faecalis, VRE
Procedure: Test and Comparator Agents: The test agents were stored at room temperature until assayed. […] The stock solutions were allowed to stand for at least 1 hr prior to use to auto-sterilize.
TestMedia: Test media were prepared and stored in accordance with guidelines from CLSI (4, 6, 7).
Broth Microdilution MC Testing (Aerobic Bacteria and Yeast): The broth microdilution assay method employed for the susceptibility testing of aerobic bacteria (excluding N. gonorrhoeae which was evaluated by agar dilution) and yeast essentially followed the procedures described by CLSI (3, 4, 7, 8) and employed automated liquid handlers to conduct serial dilutions and liquid transfers. […] These would become the ‘mother plates’ from which ‘daughter’ or test plates would be prepared. The drugs (300 μL at 40× the desired top concentration in the test plates) were dispensed into the appropriate well in Column 1 of the mother plates. The Biomek 2000 was used to make serial two-fold dilutions through Column 11 in the “mother plate”. The wells of Column 12 contained no drug and ultimately served as the organism growth control wells.
The daughter plates were prepared using the Biomek FX which transferred 5 μL of drug solution from each well of a mother plate to the corresponding well of the correct daughter plate in a single step.
A standardized inoculum of each organism was prepared per CLSI methods (3, 7). Isolated colonies of each test isolate were picked from the primary plate and a suspension was prepared to equal a 0.5 McFarland turbidity standard. Standardized suspensions were then diluted […] (1:100 for yeast, 1:20 for bacteria). After dilution, the inoculum suspensions were then transferred to compartments of sterile reservoirs divided by length (Beckman Coulter), and the Biomek 2000 was used to inoculate all plates. Daughter plates were placed on the Biomek 2000 in reverse orientation so that plates were inoculated from low to high drug concentration.
The Biomek 2000 delivered 10 μL of standardized inoculum into each well of the appropriate daughter plate for an additional 1:20 dilution.
Plates were stacked 4 high, covered with a lid on the top plate, placed into plastic bags, and incubated at 35° C. for approximately 24-48 hr for all yeast isolates and 16-24 hr for aerobic bacteria. Plates were viewed from the bottom using a plate viewer. […] MIC endpoints for the test agents and control compounds were read per CLSI criteria (3, 7).

[6] = system: C. difficile; test: Agar dilution MIC, anaerobes (Example 5); assay type: cell-based, Clostridium difficile; settings: Clostridioides difficile
[7] = ATCC700057, C. difficile MMX 4381 (ATCC 700057), QC, CCI
[8] = C. difficile MMX 8272, ribotype 255, CCI
[9] = C. difficile MMX 8279, ribotype 005, CCR
[10] = C. difficile MMX 8281, ribotype 010, CCR
[11] = NCTC13307, C. difficile MMX 5681 (NCTC 13307), ribotype 012, CCR
[12] = NCTC13336, C. difficile MMX 5680 (NCTC 13336), ribotype 027, CCI METR

In the case of `NCC[C@H](O)C(=O)N[C@@H]1C[C@H](N)[C@@H](O[C@H]2O[C@H](CN)[C@@H](O)[C@H](O)[C@H]2O)[C@H](O)[C@H]1O[C@H]1O[C@H](CO)[C@@H](O)[C@H](N)[C@H]1O` [Amikacin], the “MIC QC range (in parentheses)” value ([1]; P. aeruginosa ATCC 27853) is given as “(1-4) μg/mL”.
For `CCC[C@@H]1C[C@@H](C(=O)N[C@@H]([C@H]2O[C@H](SC)[C@H](O)[C@@H](O)[C@H]2O)[C@H](C)Cl)N(C)C1` [CLI], the “Mean MIC” value [2] was 1.06 µg/mL, the “n (% resistant)” value [2] was 1 (50.0) n (%) and the MIC ([3]; S. aureus isolate NRS 1 (hVISA)) was greater than 8 µg/mL. It also gave an MIC ([3]; S. aureus isolate NRS 2) greater than 8 µg/mL, an MIC ([3]; S. aureus isolate NRS 3) greater than 8 µg/mL and an MIC ([3]; S. aureus isolate NRS 4) greater than 8 µg/mL. It also gave an MIC ([3]; S. aureus isolate NRS 13) of 0.06 µg/mL, an MIC ([3]; S. aureus isolate NRS 18) greater than 8 µg/mL and an MIC ([3]; S. aureus isolate NRS 22) greater than 8 µg/mL. For the same molecule, the MIC ([3]; S. aureus isolate NRS 24 (hVISA)) was greater than 8 µg/mL, the MIC ([3]; S. aureus isolate NRS 27) was greater than 8 µg/mL and the “MIC QC range (in parentheses)” value ([1]; S. aureus ATCC 29213) was “(0.06-0.25) μg/mL”.
In the case of `CC(C)(O/N=C(\C(=O)N[C@@H]1C(=O)N2C(C(=O)[O-])=C(C[n+]3ccccc3)CS[C@H]12)c1csc(N)n1)C(=O)O` [Ceftazidime], the MIC ([4]; E. faecium MMX 485) is given as greater than 32 µg/mL, the “MIC QC range (in parentheses)” value ([1]; E. coli ATCC 25922) is given as “(0.06-0.5) μg/mL” and the “MIC QC range (in parentheses)” value ([1]; P. aeruginosa ATCC 27853) is given as “(1-4) μg/mL”.
In the case of `C[C@H]1COc2c(N3CCN(C)CC3)c(F)cc3c(=O)c(C(=O)O)cn1c23` [Levofloxacin], the MIC [2] is reported as 0.18 µg/mL, the “n (% resistant)” value [2] is reported as 0 (0.0) n (%) and the MIC ([3]; Staphylococcus aureus, NRS1, S. aureus isolate NRS 1 (hVISA), read-out: MIC) is reported as 4 µg/mL. It also gave an MIC ([3]; Staphylococcus aureus, NRS2, S. aureus isolate NRS 2, read-out: MIC) of 4 µg/mL, an MIC ([3]; Staphylococcus aureus, NRS3, S. aureus isolate NRS 3, read-out: MIC) greater than 8 µg/mL and an MIC ([3]; Staphylococcus aureus, NRS4, S. aureus isolate NRS 4, read-out: MIC) of 4 µg/mL. It also gave an MIC ([3]; Staphylococcus aureus, NRS13, S. aureus isolate NRS 13, read-out: MIC) of 0.12 µg/mL, an MIC ([3]; Staphylococcus aureus, NRS18, S. aureus isolate NRS 18, read-out: MIC) of 4 µg/mL and an MIC ([3]; Staphylococcus aureus, NRS22, S. aureus isolate NRS 22, read-out: MIC) of 8 µg/mL. It also gave an MIC ([3]; Staphylococcus aureus, NRS24, S. aureus isolate NRS 24 (hVISA), read-out: MIC) greater than 8 µg/mL, an MIC ([3]; Staphylococcus aureus, NRS27, S. aureus isolate NRS 27, read-out: MIC) of 8 µg/mL and an MIC ([4]; E. faecium MMX 485) greater than 64 µg/mL.
With `OCC(S)CS.[Bi]` (centres unmarked) [MB-2B, bismuth-2,3-dimercaptopropanol] the MIC ([5]; E. faecalis MMX 8960) was 2 µg/mL, the MIC ([5]; E. faecalis MMX 8961) was 2 µg/mL and the MIC ([5]; E. faecalis MMX 8962) was 2 µg/mL. It also gave an MIC ([3]; Staphylococcus aureus, NRS1) of 1 µg/mL, an MIC ([3]; Staphylococcus aureus, NRS2) of 0.5 µg/mL and an MIC ([3]; Staphylococcus aureus, NRS3) of 2 µg/mL. It also gave an MIC ([3]; Staphylococcus aureus, NRS4) of 1 µg/mL, an MIC ([3]; Staphylococcus aureus, NRS13) of 1 µg/mL and an MIC ([3]; Staphylococcus aureus, NRS18) of 1 µg/mL. It also gave an MIC ([3]; Staphylococcus aureus, NRS22) of 2 µg/mL, an MIC ([3]; Staphylococcus aureus, NRS24) of 1 µg/mL and an MIC ([3]; Staphylococcus aureus, NRS27) of 1 µg/mL. It also gave an MIC [6, 7] of 8 µg/mL, an MIC [6, 8] of 8 µg/mL and an MIC [6, 9] of 16 µg/mL. It also gave an MIC [6, 10] of 8 µg/mL, an MIC [6, 11] of 8 µg/mL and an MIC [6, 12] of 2 µg/mL. For the same molecule, the MIC ([4]; Enterococcus faecium, VRE, E. faecium MMX 485) was 2 µg/mL and the MIC ([4]; Enterococcus faecium, VRE, E. faecium MMX 752) was 4 µg/mL.
In the case of `CC(S)C(C)S.[Bi]` (centres unmarked) [MB-6, bismuth-2,3-butanedithiol], the MIC ([5]; E. faecalis MMX 8960) is reported as 0.5 µg/mL, the MIC ([5]; E. faecalis MMX 8961) is reported as 0.25 µg/mL and the MIC ([5]; E. faecalis MMX 8962) is reported as 0.25 µg/mL. The MIC ([3]; Staphylococcus aureus, NRS1) was 0.12 µg/mL, the MIC ([3]; Staphylococcus aureus, NRS2) was no more than 0.06 µg/mL and the MIC ([3]; Staphylococcus aureus, NRS24) was 1 µg/mL. The MIC [6, 7] was 4 µg/mL, the MIC [6, 8] was 2 µg/mL and the MIC [6, 9] was 2 µg/mL. For the same molecule, the MIC [6, 10] was 2 µg/mL, the MIC [6, 11] was 2 µg/mL and the MIC [6, 12] was 2 µg/mL.
For `C[C@@H](O)[C@H]1C(=O)N2C(C(=O)O)=C(S[C@@H]3CN[C@H](C(=O)N(C)C)C3)[C@H](C)[C@H]12` [Meropenem], the MIC ([4]; E. faecium MMX 485) is listed as greater than 64 µg/mL, the “MIC QC range (in parentheses)” value ([1]; E. coli ATCC 25922) is listed as “(0.008-0.06) μg/mL” and the “MIC QC range (in parentheses)” value ([1]; E. coli ATCC 35218) is listed as “(0.008-0.06) μg/mL”. The “MIC QC range (in parentheses)” value ([1]; K. pneumoniae ATCC BAA-1705) was “(8-64) μg/mL” and the “MIC QC range (in parentheses)” value ([1]; P. aeruginosa ATCC 27853) was “(0.12-1) μg/mL”.

Source: patent US20240285571A1, “METHODS OF TREATING BONE INFECTIONS” (MICROBION CORPORATION, priority 2020, published 2024)
